We go through 36 molecules from patent US10954240B2, “Compounds inhibiting leucine-rich repeat kinase enzyme activity” (Merck Sharp & Dohme Corp., priority 2014, dated 2021).

Where a name gives a salt, the structure may show the parent alone.

In the experiment the target is LRRK2 (G2019S mutation, GST-LRRK2 (amino acids 970-2527)) (Homo sapiens (Human), UniProt Q5S007, G2019S). In words: LRRK2 Km ATP LanthaScreen Assay. It is filed as biochemical. The settings on record: mean IC50 of several test results. An excerpt: Unless otherwise noted, all LRRK2 IC50 data presented in tables refers to the LRRK2 Km ATP LanthaScreen™ Assay that is described in the Biological Assay section.
The data presented for the Km ATP LanthaScreen™ Assay represents mean IC50 values based on several test results and may have reasonable deviations depending on the specific conditions and reagents used. Reagents for the LRRK2 Km ATP LanthaScreen™ Assay were purchased from Life Technologies Corporation.
LRRK2 Km ATP LanthaScreen™ Assay
a) 400 nl of a 1:2.15 serial dilution of test compound (98 μM top assay concentration) is spotted via Labcyte Echo to certain wells in a 384 well black, untreated plate. Control wells contain 400 nl of either DMSO or 400 nl of a known inhibitor in DMSO.
c) A 30 minute room temperature incubation is followed by addition of 10 μl of 800 nM fluorescein labeled LRRKtide peptide substrate and 186 μM ATP solution in 1× assay buffer to all wells.
d) After a 60 minute room temperature incubation, 20 μl of TR-FRET Dilution Buffer (Invitrogen PV3756B) containing 4 nM Tb-labeled anti-phospho LRRKtide antibody and 20 mM EDTA is added to all wells.
e) Plates are incubated at room temperature for 1 hour and read on an Envision™ multi-mode plate reader with LanthaScreen™ settings. Results are analysed using Assay Data Analyzer.

Chain of LRRK2 (G2019S mutation, GST-LRRK2 (amino acids 970-2527)) (Q5S007 970-2527 G2019S): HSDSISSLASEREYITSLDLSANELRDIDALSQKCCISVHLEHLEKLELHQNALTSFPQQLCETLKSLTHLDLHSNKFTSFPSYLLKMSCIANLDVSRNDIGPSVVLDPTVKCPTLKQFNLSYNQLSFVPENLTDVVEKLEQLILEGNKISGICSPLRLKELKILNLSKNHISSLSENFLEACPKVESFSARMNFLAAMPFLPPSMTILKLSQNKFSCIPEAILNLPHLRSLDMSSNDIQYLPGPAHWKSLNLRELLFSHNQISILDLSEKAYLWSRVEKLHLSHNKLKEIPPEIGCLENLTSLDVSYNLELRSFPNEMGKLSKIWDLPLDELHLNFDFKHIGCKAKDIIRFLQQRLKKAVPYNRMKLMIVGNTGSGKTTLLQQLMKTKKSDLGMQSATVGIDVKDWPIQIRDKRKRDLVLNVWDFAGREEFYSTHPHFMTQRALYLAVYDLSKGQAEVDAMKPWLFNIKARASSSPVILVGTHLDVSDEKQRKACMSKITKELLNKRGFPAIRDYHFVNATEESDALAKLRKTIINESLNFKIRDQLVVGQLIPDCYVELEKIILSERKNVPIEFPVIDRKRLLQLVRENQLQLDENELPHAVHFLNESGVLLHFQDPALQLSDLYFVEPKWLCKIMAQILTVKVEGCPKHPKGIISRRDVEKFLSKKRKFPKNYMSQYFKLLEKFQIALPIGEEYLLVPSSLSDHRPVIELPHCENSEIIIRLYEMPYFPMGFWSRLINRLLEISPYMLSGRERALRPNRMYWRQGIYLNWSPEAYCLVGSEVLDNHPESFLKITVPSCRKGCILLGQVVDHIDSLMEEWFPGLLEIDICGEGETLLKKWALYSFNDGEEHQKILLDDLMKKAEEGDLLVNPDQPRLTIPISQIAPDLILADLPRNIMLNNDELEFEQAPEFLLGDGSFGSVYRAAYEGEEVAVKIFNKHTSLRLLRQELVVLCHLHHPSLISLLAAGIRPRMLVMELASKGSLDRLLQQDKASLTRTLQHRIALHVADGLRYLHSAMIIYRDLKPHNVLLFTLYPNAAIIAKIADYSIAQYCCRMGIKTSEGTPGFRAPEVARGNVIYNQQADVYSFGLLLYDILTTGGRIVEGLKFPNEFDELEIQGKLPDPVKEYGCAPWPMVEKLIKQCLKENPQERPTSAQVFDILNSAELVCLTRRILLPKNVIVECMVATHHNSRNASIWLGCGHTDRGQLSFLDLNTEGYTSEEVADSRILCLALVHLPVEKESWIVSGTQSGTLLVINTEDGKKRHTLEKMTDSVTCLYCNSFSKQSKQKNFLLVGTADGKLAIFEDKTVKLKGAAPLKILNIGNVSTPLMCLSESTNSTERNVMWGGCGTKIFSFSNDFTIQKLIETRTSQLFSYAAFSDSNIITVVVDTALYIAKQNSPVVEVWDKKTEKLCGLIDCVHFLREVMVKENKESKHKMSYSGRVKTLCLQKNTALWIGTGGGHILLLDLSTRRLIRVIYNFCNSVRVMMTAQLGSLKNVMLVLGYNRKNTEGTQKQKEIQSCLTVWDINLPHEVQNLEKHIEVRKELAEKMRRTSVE

The molecule `c1cc(-n2ncc3ccc(-c4cn[nH]c4)cc32)cc(N2CCOCC2)n1` [Example 18, 4-(4-(6-(1H-pyrazol-4-yl)-1H-indazol-1-yl)pyridin-2-yl)morpholine] had an IC50 of 73 nM.

The molecule `Cn1cc(-c2ccc3cnn(-c4ccnc(N5CCC(O)CC5)c4)c3c2)cn1` [Example 44, 1-(4-(6-(1-methyl-1H-pyrazol-4-yl)-1H-indazol-1-yl)pyridin-2-yl)piperidin-4-ol] registered an IC50 of 100 nM. With `CCn1cc(-c2ccc3cnn(-c4ccnc(N5CCOCC5)c4)c3c2)cn1` [Example 19, 4-(4-(6-(1-ethyl-1H-pyrazol-4-yl)-1H-indazol-1-yl)pyridin-2-yl)morpholine] the figure was 128 nM. With `Cn1cc(-c2ccc3cnn(-c4ccnc(N5CC(F)C5)c4)c3c2)cn1` [Example 14, 1-(2-(3-fluoroazetidin-1-yl)pyridin-4-yl)-6-(1-methyl-1H-pyrazol-4-yl)-1H-indazole] the figure was 145 nM. With `Cn1cc(-c2ccc3cnn(-c4cc(N5CCOCC5)ncn4)c3c2)cn1` [Example 68, 6-(1-methyl-1H-pyrazol-4-yl)-1-(6-morpholin-4-ylpyrimidin-4-yl)-1H-indazole] the figure was 79 nM; with `CN1CCN(c2cc(-n3ncc4ccc(-c5cnn(C)c5)cc43)ccn2)CC1` [Example 9, 6-(1-methyl-1H-pyrazol-4-yl)-1-(2-(4-methylpiperazin-1-yl)pyridin-4-yl)-1H-indazole], 56 nM. `Cn1cc(-c2ccc3cnn(-c4ccnc(N5CC[C@H](F)C5)c4)c3c2)cn1` [Example 13, (S)-1-(2-(3-fluoropyrrolidin-1-yl)pyridin-4-yl)-6-(1-methyl-1H-pyrazol-4-yl)-1H-indazole]: inhibition was half-maximal at 108 nM (IC50).

`Cn1cc(-c2ccc3cnn(-c4ccnc(N5CCCCC5)c4)c3c2)cn1` [Example 45, 6-(1-methyl-1H-pyrazol-4-yl)-1-(2-(pipendin-1-yl)pyridin-4-yl)-1H-indazole]: half-maximal inhibition (IC50) required 141 nM. The value for `CCc1nnc2n1CCN(c1cc(-n3ncc4ccc(-c5cnn(C)c5)cc43)ccn1)C2` [Example 51, 3-ethyl-7-(4-(6-(1-methyl-1H-pyrazol-4-yl)-1H-indazol-1-yl)pyridin-2-yl)-5,6,7,8-tetrahydro-[1,2,4]triazolo[4,3-a]pyrazine] was 217 nM; that for `CC(C)Oc1ccc2cnn(-c3ccnc(N4C[C@@H](C)O[C@@H](C)C4)c3)c2c1` [Example 32, cis-4-(4-(6-isopropoxy-1H-indazol-1-yl)pyridin-2-yl)-2,6-dimethylmorpholine] was 245 nM; that for `c1nc(N2CCOCC2)cc(-n2ncc3ccc(C4CC4)cc32)n1` [Example 71, 6-cyclopropyl-1-(6-morpholin-4-ylpyrimidin-4-yl)-1H-indazole] was 231 nM. The value for `CC(C)Oc1ccc2cnn(-c3ccnc(N4CCC(O)CC4)c3)c2c1` [Example 40, 1-(4-(6-isopropoxy-1H-indazol-1-yl)pyridin-2-yl)piperidin-4-ol] was 378 nM; that for `CC(C)Oc1ccc2cnn(-c3ccnc(N4CC[C@H](F)C4)c3)c2c1` [Example 43, (S)-1-(2-(3-fluoropyrrolidin-1-yl)pyridin-4-yl)-6-isopropoxy-1H-indazole] was 950 nM.

`CC(C)Oc1ccc2cnn(-c3ccnc(N4CCN(c5ncccn5)CC4)c3)c2c1` [Example 33, 6-isopropoxy-1-(2-(4-(pyrimidin-2-yl)piperazin-1-yl)pyridin-4-yl)-1H-indazole] registered an IC50 of 326 nM. With `Cn1cc(-c2cc(F)c3cnn(-c4ccnc(N5CCOCC5)c4)c3c2)cn1` [Example 3, 4-(4-(4-fluoro-6-(1-methyl-1H-pyrazol-4-yl)-1H-indazol-1-yl)pyridin-2-yl)morpholine], the IC50 was 228 nM. Molecule `CC(C)Oc1ccc2cnn(-c3ccnc(N4CCCC4)c3)c2c1` [Example 37, 6-isopropoxy-1-(2-(pyrrolidin-1-yl)pyridin-4-yl)-1H-indazole] came in with an IC50 of 229 nM. `C[C@@H]1CN(c2cc(-n3ncc4ccc(-c5cnn(C)c5)cc43)ccn2)CCO1` [Example 49, (R)-2-methyl-4-(4-(6-(1-methyl-1H-pyrazol-4-yl)-1H-indazol-1-yl)pyridin-2-yl)morpholine] registered an IC50 of 89 nM. With `Cn1cc(-c2ccc3cnn(-c4ccnc(N5CCN(c6ccncn6)CC5)c4)c3c2)cn1` [Example 54, 6-(1-methyl-1H-pyrazol-4-yl)-1-(2-(4-(pyrimidin-4-yl)piperazin-1-yl)pyridin-4-yl)-1H-indazole] the figure was 97 nM; with `c1ccc2c(c1)cnn2-c1ccnc(N2CCOCC2)c1` [Example 2, 4-(4-(1H-indazol-1-yl)pyridin-2-yl)morpholine], 633 nM; with `CC(C)Oc1ccc2cnn(-c3ccnc(N4CCn5ccnc5C4)c3)c2c1` [Example 23, 7-(4-(6-isopropoxy-1H-indazol-1-yl)pyridin-2-yl)-5,6,7,8-tetrahydroimidazo[1,2-a]pyrazine], 446 nM. On to `CC(C)Oc1ccc2cnn(-c3ccnc(N4CC[C@@H](F)C4)c3)c2c1` [Example 42, (R)-1-(2-(3-fluoropyrrolidin-1-yl)pyridin-4-yl)-6-isopropoxy-1H-indazole], for which half-maximal inhibition (IC50) required 412 nM. In the case of `CCc1nnc2n1CCN(c1cc(-n3ncc4ccc(OC(C)C)cc43)ccn1)C2` [Example 24, 3-ethyl-7-(4-(6-isopropoxy-1H-indazol-1-yl)pyridin-2-yl)-5,6,7,8-tetrahydro-[1,2,4]triazolo[4,3-a]pyrazine], the IC50 amounted to 435 nM. `CO[C@H]1CN(c2cc(-n3ncc4ccc(-c5cnn(C)c5)cc43)ccn2)C[C@@H]1O` [Example 48, (3S,4S)-4-methoxy-1-(4-(6-(1-methyl-1H-pyrazol-4-yl)-1H-indazol-1-yl)pyridin-2-yl)pyrrolidin-3-ol] registered an IC50 of 399 nM.

`CS(=O)(=O)N1CCN(c2cc(-n3ncc4ccc(-c5ccn[nH]5)cc43)ncn2)CC1` [Example 64, 1-{6-[4-(methylsulfonyl)piperazin-1-yl]pyrimidin-4-yl}-6-(1H-pyrazol-5-yl)-1H-indazole] showed an IC50 of 18 nM. The value for `CC(C)Oc1ccc2cnn(-c3ccnc(N4CCC(O)C4)c3)c2c1` (stereo not drawn) [Example 34, 1-(4-(6-isopropoxy-1H-indazol-1-yl)pyridin-2-yl)pyrrolidin-3-ol] was 307 nM; that for `CC(C)Oc1ccc2cnn(-c3ccnc(N4CCN(CCO)CC4)c3)c2c1` [Example 39, 2-(4-(4-(6-isopropoxy-1H-indazol-1-yl)pyridin-2-yl)piperazin-1-yl)ethanol] was 193 nM; that for `C[C@H]1CN(c2cc(-n3ncc4ccc(-c5cnn(C)c5)cc43)ccn2)CCO1` [Example 50, (S)-2-methyl-4-(4-(6-(1-methyl-1H-pyrazol-4-yl)-1H-indazol-1-yl)pyridin-2-yl)morpholine] was 141 nM.

Consider `Cn1cc(-c2ccc3cnn(-c4ccnc(N5CCC(C)(O)C5)c4)c3c2)cn1` (stereo not drawn) [Example 53, 3-methyl-1-(4-(6-(1-methyl-1H-pyrazol-4-yl)-1H-indazol-1-yl)pyridin-2-yl)pyrrolidin-3-ol], for which half-maximal inhibition (IC50) required 131 nM. The value for `c1nc(N2CCOCC2)cc(-n2ncc3ccc(-c4cn[nH]c4)cc32)n1` [Example 70, 1-(6-morpholin-4-ylpyrimidin-4-yl)-6-(1H-pyrazo-4-yl)-1H-indazole] was 77 nM. With `Cn1cc(-c2ccc3cnn(-c4ccnc(N5CCC(S(C)(=O)=O)CC5)c4)c3c2)cn1` [Example 16, 6-(1-methyl-1H-pyrazol-4-yl)-1-(2-(4-(methylsulfonyl)piperidin-1-yl)pyridin-4-yl)-1H-indazole] the figure was 128 nM; with `Cn1cc(-c2ccc3cnn(-c4ccnc(N5CCN(C(=O)OC(C)(C)C)CC5)c4)c3c2)cn1` [Example 15, tert-butyl 4-(4-(6-(1-methyl-1H-pyrazol-4-yl)-1H-indazol-1-yl)pyridin-2-yl)piperazine-1-carboxylate], 34 nM; with `Cn1cc(-c2ccc3cnn(-c4cc(N5CCN(S(C)(=O)=O)CC5)ncn4)c3c2)cn1` [Example 63, 6-(1-methyl-1H-pyrazol-4-yl)-1-{6-[4-(methylsulfonyl)piperazin-1-yl]pyrimidin-4-yl}-1H-indazole], 317 nM. `CC(C)Oc1ccc2cnn(-c3ccnc(N4CCN(C)C(=O)C4)c3)c2c1` [Example 31, 4-(4-(6-isopropoxy-1H-indazol-1-yl)pyridin-2-yl)-1-methylpiperazin-2-one] registered an IC50 of 443 nM. For `Cn1cncc1-c1ccc2cnn(-c3ccnc(N4CCOCC4)c3)c2c1` [Example 6, 4-(4-(6-(1-methyl-1H-imidazol-5-yl)-1H-indazol-1-yl)pyridin-2-yl)morpholine], the IC50 was 119 nM. The value for `Cn1cc(-c2ccc3cnn(-c4ccnc(N5CC(F)(F)C5)c4)c3c2)cn1` [Example 11, 1-(2-(3,3-difluoroazetidin-1-yl)pyridin-4-yl)-6-(1-methyl-1H-pyrazol-4-yl)-1H-indazole] was 224 nM.

As to `CC(C)Oc1ccc2cnn(-c3ccnc(N4CCOCC4)c3)c2c1` [Example 4, 4-(4-(6-isopropoxy-1H-indazol-1-yl)pyridin-2-yl)morpholine hydrochloride], the IC50 came out at 122 nM.

The IC50 is the midpoint of a concentration-inhibition curve. Low readings indicate higher potency, high ones lower potency.
